This note sets out measurements from ChEMBL document CHEMBL3763063, “Novel 4-anilinoquinazoline derivatives featuring an 1-adamantyl moiety as potent EGFR inhibitors with enhanced activity against NSCLC cell lines” (Eur J Med Chem, 2016).

Active and inactive are the calls of the source. The calls are words filed in the database; no cut-off is given here. Bounds are passed on as bounds.

Data set [1] concerns the target Epidermal growth factor receptor (Homo sapiens, UniProt P00533).
Description: Inhibition of wild type recombinant human EGFR assessed as reduction in autophosphorylation of cytoplasmic domain by Z'-Lyte assay
The target in data set [2] is Epidermal growth factor receptor (Homo sapiens, UniProt P00533, L858R/T790M). Type of data set: protein assay.
Description: Inhibition of recombinant human EGFR L858R/T790M double mutant assessed as reduction in autophosphorylation of cytoplasmic domain by Z'-Lyte assay
For data set [3], the system named is Epidermal growth factor receptor (Homo sapiens), P00533 [L858R,T790M]. Put plainly: Potency index, ratio of gefitinib IC50 to compound IC50 for inhibition of recombinant human EGFR L858R/T790M double mutant. Type of data set: protein assay.
For the next data set, the system named is A-431. As to the kind of experiment: cells. Type of data set: functional, cell-based. As to conditions: Homo sapiens, A-431, 72 h.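 Further: loss of viability in A431 cells carrying wild-type EGFR, read out by MTT, antiproliferative effect.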
The nature of data set [4]: Antiproliferative activity against human HCC827 cells harboring EGFR E746 to A750 deletion mutant assessed as reduction in cell viability after 72 hrs by MTT assay. The settings on record: HCC827, 72 h. Type of data set: functional, cell-based.
For data set [5], the system named is NCI-H1975. Put plainly: cells. Type of data set: functional, cell-based. The settings on record: Homo sapiens, NCI-H1975, 72 h.
Description: Antiproliferative activity against human NCI-H1975 cells harboring EGFR L858R/T790M double mutant assessed as reduction in cell viability after 72 hrs by MTT assay
The test system of another data set is A549. As to the kind of experiment: cells. The settings on record: Homo sapiens, A549, 72 h. Type of data set: functional, cell-based.
The next data set relates to MCF7. As to the kind of experiment: cells. The settings on record: Homo sapiens, MCF7, 72 h. Type of data set: functional, cell-based.
The test system of data set [6] is Epidermal growth factor receptor (Homo sapiens), P00533 [L858R,T790M]. As to the kind of experiment: Inhibition of EGFR L858R/T790M double mutant autophosphorylation in human NCI-H1975 cells after 12 hrs by Western blot analysis. Type of data set: cell-based.
The subject of data set [7] is NCI-H1975. Put plainly: Potency index, ratio of gefitinib IC50 to compound IC50 for antiproliferative activity against human NCI-H1975 cells harboring EGFR L858R/T790M double mutant. Type of data set: functional.
The subject of data set [8] is NCI-H1975. As to the kind of experiment: Effect on total EGFR L858R/T790M double mutant level in human NCI-H1975 cells at 0.1 to 10 uM after 12 hrs by Western blot analysis. Type of data set: ADME, cell-based. The settings on record: nci-h1975, 12 h.
Data set [9] has as its system NCI-H1975. As to the kind of experiment: Effect on total AKT level in human NCI-H1975 cells at 0.1 to 10 uM after 12 hrs by Western blot analysis. Type of data set: ADME, cell-based. As to conditions: nci-h1975, 12 h.
Data set [10] relates to NCI-H1975. Put plainly: Effect on total beta-actin level in human NCI-H1975 cells at 0.1 to 10 uM after 12 hrs by Western blot analysis. Type of data set: ADME, cell-based. The settings on record: nci-h1975, 12 h.
Data set [11] concerns Epidermal growth factor receptor (Homo sapiens), P00533 [L858R,T790M]. The settings on record: NCI-H1975, at 1 µM.
Description: Inhibition of EGFR L858R/T790M double mutant in human NCI-H1975 cells assessed as reduction in phosphorylated AKT level at 1 uM after 12 hrs by Western blot analysis

Description for A-431: Antiproliferative activity against human A431 cells harboring wild type EGFR assessed as reduction in cell viability after 72 hrs by MTT assay
Description for A549: Antiproliferative activity against human A549 cells harboring K-ras mutation assessed as reduction in cell viability after 72 hrs by MTT assay
Description for MCF7: Antiproliferative activity against human MCF7 cells overexpressing EGFR assessed as reduction in cell viability after 72 hrs by MTT assay

`COc1cc2ncnc(Nc3ccc(C(=O)NC45CC6CC(CC(C6)C4)C5)c(Cl)c3)c2cc1OCCCN1CCOCC1`: the IC50 came out at 0.00642 µM in data set [1]; 0.00462 µM in data set [2]; 2.06 µM in the data set with A-431; 0.009 µM in data set [4]; 5.89 µM with NCI-H1975 [5]; 2.65 µM in the data set on A549. In the data set on MCF7, 5.48 µM corresponded to half-maximal inhibition (IC50). The Ratio IC50 in data set [3] stood at 160; with NCI-H1975 [7], 5. In data set [6], the inhibition result was “Dose-dependent effect”. Moreover, the Activity entry in the data set with NCI-H1975 [8], with NCI-H1975 [9] and with NCI-H1975 [10] was “Non-toxic” throughout. Also, in [11], the inhibition result is “Active”.
On to `COCCOc1cc2ncnc(Nc3ccc(NC(=O)C45CC6CC(CC(C6)C4)C5)c(C#N)c3)c2cc1OCCOC`, for which the IC50 in data set [1] was 0.00501 µM; in data set [2], 0.0104 µM; in the data set on A-431 it was 4.51 µM; in [4], more than 0.04 µM; in the data set on NCI-H1975 [5] it was 38.3 µM; in the data set on A549, 7.74 µM. Further, the IC50 in the data set with MCF7 was 5.64 µM.
As for `COCCOc1cc2ncnc(Nc3cccc(NC(=O)C45CC6CC(CC(C6)C4)C5)c3)c2cc1OCCOC`, the IC50 was 0.00163 µM in data set [1]; 0.0145 µM in data set [2]; 9.52 µM with A-431; 0.03 µM in data set [4]; 18.8 µM in the data set on NCI-H1975 [5]; 3.99 µM with A549. The compound further displayed an IC50 in the data set with MCF7 of 11.2 µM.
Turning to `COCCOc1cc2ncnc(Nc3ccc(NC(=O)C45CC6CC(CC(C6)C4)C5)c(OC)c3)c2cc1OCCOC`, the IC50 in data set [1] was 0.00594 µM; in data set [2] it was 0.0108 µM; in the data set with A-431 it was 6.62 µM; in data set [4], more than 0.04 µM; in the data set on NCI-H1975 [5] it was 33.1 µM; in the data set on A549 it was 7.62 µM. Besides, half-maximal inhibition in the data set on MCF7 (IC50) was put at 5.19 µM.
Turning to `COc1cc2ncnc(Nc3cccc(C(=O)NC45CC6CC(CC(C6)C4)C5)c3)c2cc1OCCCN1CCOCC1`, the IC50 in data set [1] stood at 0.00112 µM; in [2] it was 0.0115 µM; in the data set on A-431, 10.5 µM; in [4], 0.02 µM; with NCI-H1975 [5], 31 µM; in the data set with A549, 11.6 µM. This compound registered an IC50 with MCF7 of 23.6 µM.
With `COCCOc1cc2ncnc(Nc3ccc(C(=O)NC45CC6CC(CC(C6)C4)C5)cc3)c2cc1OCCOC`, the IC50 in data set [1] was found to be 0.00961 µM; in data set [2], 0.00602 µM; in the data set on A-431 it was 1.02 µM; in data set [4], 0.038 µM; in the data set on NCI-H1975 [5], 12.4 µM; in the data set on A549, 3.42 µM. In addition, the IC50 in the data set with MCF7 was 1.25 µM. For the same compound, the Ratio IC50 in [3] was 160. Also, in data set [6], the inhibition result was “Dose-dependent effect”. The Activity result in the data set with NCI-H1975 [8], in the data set with NCI-H1975 [9] and with NCI-H1975 [10] was “Non-toxic” each time. In addition, in data set [11], the inhibition result was “Active”.
Consider `COc1cc2ncnc(Nc3cccc(NC(=O)C45CC6CC(CC(C6)C4)C5)c3)c2cc1OCCCN1CCOCC1`, for which the IC50 in data set [1] was 0.00311 µM; in data set [2] it was 0.159 µM; in the data set with A-431, 15.9 µM; in [4], 0.035 µM; with NCI-H1975 [5], 35.9 µM; with A549, 8.86 µM. Besides, in the data set on MCF7, the IC50 was determined as 9.94 µM.
As for `COc1cc2ncnc(Nc3cc(C(=O)NC45CC6CC(CC(C6)C4)C5)ccc3C)c2cc1OCCCN1CCOCC1`, the IC50 in [1] was determined as 0.0154 µM; in data set [2], 0.0327 µM; in the data set on A-431 it was 5.74 µM; in data set [4] it was 0.014 µM; with NCI-H1975 [5], 17.1 µM; with A549, 6.73 µM. The compound further came in with an IC50 in the data set with MCF7 of 9.04 µM.
Turning to `COc1cc2ncnc(Nc3ccc(C(=O)NC45CC6CC(CC(C6)C4)C5)c(C#N)c3)c2cc1OCCCN1CCOCC1`, the IC50 in data set [1] was found to be 0.00471 µM; in data set [2] it was 0.00571 µM; in the data set with A-431 it was 3.39 µM; in data set [4], 0.02 µM; in the data set with NCI-H1975 [5], 26.2 µM; in the data set on A549, 5.94 µM. This compound also had an IC50 with MCF7 of 11.6 µM. Further, the Ratio IC50 in data set [3] amounted to 160.
As for `COCCOc1cc2ncnc(Nc3ccc(NC(=O)C45CC6CC(CC(C6)C4)C5)cc3C)c2cc1OCCOC`, the IC50 amounted to 0.00452 µM in data set [1]; 0.0165 µM in [2]; 4.73 µM in the data set with A-431; 0.025 µM in data set [4]; 16.6 µM with NCI-H1975 [5]; 4.58 µM with A549. Also, inhibition in the data set on MCF7 was half-maximal at 5.34 µM (IC50).
For the compound `COc1cc2ncnc(Nc3ccc(C(=O)NC45CC6CC(CC(C6)C4)C5)cc3)c2cc1OCCCN1CCOCC1`, the IC50 in data set [1] is 0.00201 µM; in data set [2] it was 0.0054 µM; with A-431, 27.9 µM; in [4], 0.009 µM; in the data set with NCI-H1975 [5], more than 40 µM; with A549, 6.11 µM. Further, it took 12 µM to reach half-maximal inhibition with MCF7 (IC50). Besides, the Ratio IC50 in data set [3] worked out at 160.
With `COCCOc1cc2ncnc(Nc3ccc(NC(=O)C45CC6CC(CC(C6)C4)C5)c(C)c3)c2cc1OCCOC`, the IC50 in [1] was 0.00292 µM; in data set [2] it was 0.0663 µM; in the data set with A-431 it was 5.61 µM; in data set [4], 0.023 µM; in the data set on NCI-H1975 [5] it was 21.6 µM; in the data set on A549 it was 8.01 µM. The IC50 in the data set with MCF7 came to 8.35 µM.
